# Results reported in publication PMC8766756, “Insights on Cancer Cell Inhibition, Subcellular Activities, and Kinase Profile of Phenylacetamides Pending 1H-Imidazol-5-One Variants” (Frontiers in Pharmacology, 2022).
# Columns and labels:
# Assay in all cases: PamChip tyrosine kinase microarray
# Assay type in all cases: biochemical
# Conditions in all cases: 0.1 µM, HL60 lysate
# [1] = biological target: T1, Abl (P00519) (Homo sapiens, UniProt P00519)
# T1 construct: purchased PamGene (PamChip PTK array, Upstream Kinase Analysis)
# T1 sequence (P00519 whole entry): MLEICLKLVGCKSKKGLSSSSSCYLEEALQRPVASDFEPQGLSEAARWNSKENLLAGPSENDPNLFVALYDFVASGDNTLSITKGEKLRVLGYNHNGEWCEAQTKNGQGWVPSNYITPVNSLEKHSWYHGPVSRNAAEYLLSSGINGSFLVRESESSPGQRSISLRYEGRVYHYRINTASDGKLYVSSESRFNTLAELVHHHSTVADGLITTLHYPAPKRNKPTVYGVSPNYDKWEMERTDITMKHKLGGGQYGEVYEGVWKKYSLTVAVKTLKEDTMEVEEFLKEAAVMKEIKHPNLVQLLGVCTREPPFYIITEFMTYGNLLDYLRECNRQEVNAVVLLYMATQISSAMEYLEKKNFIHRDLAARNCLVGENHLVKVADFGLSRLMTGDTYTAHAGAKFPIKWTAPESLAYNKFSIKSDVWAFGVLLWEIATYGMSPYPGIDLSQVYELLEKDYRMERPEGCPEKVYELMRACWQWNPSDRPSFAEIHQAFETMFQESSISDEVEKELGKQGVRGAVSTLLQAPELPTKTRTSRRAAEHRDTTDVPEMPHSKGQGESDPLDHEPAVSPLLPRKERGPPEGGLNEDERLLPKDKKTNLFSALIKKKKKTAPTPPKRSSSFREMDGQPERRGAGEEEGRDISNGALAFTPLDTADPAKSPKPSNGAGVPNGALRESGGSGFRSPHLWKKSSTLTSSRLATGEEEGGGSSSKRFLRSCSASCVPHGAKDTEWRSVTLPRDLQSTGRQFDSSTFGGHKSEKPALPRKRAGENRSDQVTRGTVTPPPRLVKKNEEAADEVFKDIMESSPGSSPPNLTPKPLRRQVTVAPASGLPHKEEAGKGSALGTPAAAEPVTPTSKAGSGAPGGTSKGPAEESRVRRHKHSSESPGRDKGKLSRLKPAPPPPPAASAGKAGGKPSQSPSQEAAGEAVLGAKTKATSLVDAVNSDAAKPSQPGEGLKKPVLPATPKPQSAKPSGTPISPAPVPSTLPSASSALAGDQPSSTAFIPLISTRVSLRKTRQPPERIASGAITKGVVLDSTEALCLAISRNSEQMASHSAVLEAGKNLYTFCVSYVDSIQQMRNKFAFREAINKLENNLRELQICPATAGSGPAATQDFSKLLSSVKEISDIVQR
# How it was run: (§1)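 HL60 (AML) cell lysate was spiked with compound at 0.001, 0.01, 0.1, 1, 10 and 50 µM, or 2% v/v DMSO as control, then profiled in technical replicates on a tyrosine kinase peptide array of 196 phosphosites. Kinase activity was inferred from peptide-set changes using an upstream kinase tool.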
# [2] = biological target: T2, BLK (P51451) (Homo sapiens, UniProt P51451)
# T2 construct: purchased PamGene (PamChip PTK array, Upstream Kinase Analysis)
# T2 sequence (P51451 whole entry): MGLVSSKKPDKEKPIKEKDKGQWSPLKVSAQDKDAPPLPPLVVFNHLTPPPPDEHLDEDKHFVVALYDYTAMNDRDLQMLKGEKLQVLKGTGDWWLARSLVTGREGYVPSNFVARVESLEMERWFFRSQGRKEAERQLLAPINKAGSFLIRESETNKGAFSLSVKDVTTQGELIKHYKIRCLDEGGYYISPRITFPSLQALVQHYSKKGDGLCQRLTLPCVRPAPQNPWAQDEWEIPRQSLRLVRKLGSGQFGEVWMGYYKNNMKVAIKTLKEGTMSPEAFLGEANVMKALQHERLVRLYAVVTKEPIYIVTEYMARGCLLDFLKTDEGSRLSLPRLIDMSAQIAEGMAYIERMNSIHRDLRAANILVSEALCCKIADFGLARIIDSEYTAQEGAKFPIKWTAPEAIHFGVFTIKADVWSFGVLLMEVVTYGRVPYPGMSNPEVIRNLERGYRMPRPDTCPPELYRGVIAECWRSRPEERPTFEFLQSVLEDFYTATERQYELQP
# How it was run: as §1
# [3] = biological target: T3, Arg (P42684) (Homo sapiens, UniProt P42684)
# T3 construct: purchased PamGene (PamChip PTK array, Upstream Kinase Analysis)
# T3 sequence (P42684 whole entry): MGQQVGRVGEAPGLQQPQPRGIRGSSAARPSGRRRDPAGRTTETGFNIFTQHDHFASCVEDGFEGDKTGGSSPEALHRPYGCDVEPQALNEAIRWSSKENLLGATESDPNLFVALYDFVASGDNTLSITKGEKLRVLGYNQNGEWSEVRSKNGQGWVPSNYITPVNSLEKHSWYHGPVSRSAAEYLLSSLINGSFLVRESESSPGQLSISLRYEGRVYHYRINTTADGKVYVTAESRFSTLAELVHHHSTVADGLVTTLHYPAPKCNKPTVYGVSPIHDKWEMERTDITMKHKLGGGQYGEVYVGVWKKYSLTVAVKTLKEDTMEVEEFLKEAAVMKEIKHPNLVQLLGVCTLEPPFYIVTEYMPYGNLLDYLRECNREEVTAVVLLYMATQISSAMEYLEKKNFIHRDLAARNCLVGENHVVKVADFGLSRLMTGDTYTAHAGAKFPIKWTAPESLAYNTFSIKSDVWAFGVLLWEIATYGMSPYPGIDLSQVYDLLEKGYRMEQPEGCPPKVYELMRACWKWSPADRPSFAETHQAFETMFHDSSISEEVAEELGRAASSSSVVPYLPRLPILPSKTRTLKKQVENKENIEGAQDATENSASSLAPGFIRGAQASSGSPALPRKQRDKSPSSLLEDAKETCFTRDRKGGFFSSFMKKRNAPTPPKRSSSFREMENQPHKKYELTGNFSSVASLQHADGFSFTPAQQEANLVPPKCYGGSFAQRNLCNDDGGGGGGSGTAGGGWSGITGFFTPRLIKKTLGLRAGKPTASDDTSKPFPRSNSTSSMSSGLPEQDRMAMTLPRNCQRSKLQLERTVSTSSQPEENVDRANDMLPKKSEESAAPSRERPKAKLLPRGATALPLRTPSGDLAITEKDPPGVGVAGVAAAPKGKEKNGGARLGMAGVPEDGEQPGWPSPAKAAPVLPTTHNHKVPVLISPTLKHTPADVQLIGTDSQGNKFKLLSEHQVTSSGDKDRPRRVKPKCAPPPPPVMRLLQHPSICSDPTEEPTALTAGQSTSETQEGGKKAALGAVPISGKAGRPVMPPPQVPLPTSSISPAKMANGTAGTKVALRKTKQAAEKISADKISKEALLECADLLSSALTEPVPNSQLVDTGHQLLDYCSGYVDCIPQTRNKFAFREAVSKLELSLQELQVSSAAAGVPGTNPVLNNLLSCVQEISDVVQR
# How it was run: as §1
# [4] = biological target: T4, EphA3 (P29320) (Homo sapiens, UniProt P29320)
# T4 construct: purchased PamGene (PamChip PTK array, Upstream Kinase Analysis)
# T4 sequence (P29320 21-983): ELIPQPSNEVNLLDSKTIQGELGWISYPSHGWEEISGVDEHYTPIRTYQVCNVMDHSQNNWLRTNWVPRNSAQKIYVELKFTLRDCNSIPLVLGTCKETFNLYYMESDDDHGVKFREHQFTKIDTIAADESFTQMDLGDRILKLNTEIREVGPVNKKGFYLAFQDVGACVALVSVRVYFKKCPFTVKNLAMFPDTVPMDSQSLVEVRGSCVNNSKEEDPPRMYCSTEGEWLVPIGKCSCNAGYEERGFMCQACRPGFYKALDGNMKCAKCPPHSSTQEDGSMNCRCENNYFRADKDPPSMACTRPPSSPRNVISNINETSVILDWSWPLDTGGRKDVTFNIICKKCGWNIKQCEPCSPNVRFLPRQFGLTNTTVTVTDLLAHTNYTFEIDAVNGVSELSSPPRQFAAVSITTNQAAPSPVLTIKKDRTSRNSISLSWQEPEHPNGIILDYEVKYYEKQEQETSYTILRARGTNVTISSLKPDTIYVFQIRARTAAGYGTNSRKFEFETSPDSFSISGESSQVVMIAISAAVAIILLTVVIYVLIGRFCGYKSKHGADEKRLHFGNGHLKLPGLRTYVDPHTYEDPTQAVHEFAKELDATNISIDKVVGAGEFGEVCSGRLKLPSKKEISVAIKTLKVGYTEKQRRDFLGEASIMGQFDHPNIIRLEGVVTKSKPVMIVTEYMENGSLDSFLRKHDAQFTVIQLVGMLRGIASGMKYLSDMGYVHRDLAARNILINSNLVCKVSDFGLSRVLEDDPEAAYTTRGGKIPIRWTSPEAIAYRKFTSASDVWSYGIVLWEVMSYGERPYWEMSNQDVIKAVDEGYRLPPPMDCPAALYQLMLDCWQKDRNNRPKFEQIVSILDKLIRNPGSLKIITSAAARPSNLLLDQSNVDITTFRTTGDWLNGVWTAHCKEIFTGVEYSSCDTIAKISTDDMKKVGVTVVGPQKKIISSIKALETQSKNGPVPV
# How it was run: as §1
smiles,measurement,setting,value
"COc1ccc(/C=C2\N=C(C)N(c3ccc(CC(=O)NCc4ccccc4)cc3)C2=O)cc1 [Compound 4c, (Z)-N-Benzyl-2-(4-(4-(4-methoxybenzylidene)-2-methyl-5-oxo-4,5-dihydro-1H-imidazol-1-yl)phenyl)acetamide]",Mean Final score (Kinase score),[1],2.191
same,Mean Kinase Statistic,[1],-1.128
same,Mean Significance Score,[1],1.966
same,Mean Specificity Score,[1],0.1837
same,Mean Final score (Kinase score),[2],1.48
same,Mean Kinase Statistic,[2],-1.015
same,Mean Significance Score,[2],1.433
same,Mean Specificity Score,[2],0.07394
same,Mean Final score (Kinase score),[3],2.115
same,Mean Kinase Statistic,[3],-1.085
same,Mean Significance Score,[3],2.048
same,Mean Specificity Score,[3],0.07369
same,Mean Final score (Kinase score),[4],1.273
same,Mean Kinase Statistic,[4],-0.7527
same,Mean Significance Score,[4],1.23
same,Mean Specificity Score,[4],0.04291
